Experimental data taken from PMC7093416, “Selective USP7 inhibition elicits cancer cell killing through a p53-dependent mechanism” (Scientific Reports, 2020).

Test system: panel of 484 cancer cell lines
Assay: PRISM cancer cell line profiling, 5 days
Assay type: cell-based
Design: AUC: unit not given beside the values
Description: Cancer cell line profiling was performed using the Broad’s PRISM platform. Cell treatment and data analysis were performed as described in Yu et al[42]. Raw Luminex signal was converted to AUC values for each cell line as described. The resulting AUC profile for each compound was modeled against DepMap using the limma package in R[71]. Because hotspot mutation analysis was performed against DepMap, TP53 annotations in Fig. 6c,d are directly from DepMap.

CN1CCN(CCC(=O)Nc2ccc3c(=O)n(CC4(O)CCN(C(=O)[C@H](CCCNC(=O)c5ccc6c(Cl)c7c(nc6c5)CCCC7)Cc5ccccc5)CC4)cnc3c2)CC1 [XL177B] showed an AUC (MFE319_ENDOMETRIUM) of 1.072, an AUC (MG63_BONE) of 1.289 and an AUC (MHHES1_BONE) of 1.021. The AUC (MIAPACA2_PANCREAS) was 1.024, the AUC (MKN1_STOMACH) was 1.134 and the AUC (MKN7_STOMACH) was 0.9188. The AUC (MKN45_STOMACH) was 0.937, the AUC (MKN74_STOMACH) was 1.1384 and the AUC (MON_SOFT_TISSUE) was 0.868. The AUC (MPP89_PLEURA) was 1.104, the AUC (MSTO211H_PLEURA) was 1.149 and the AUC (NB1_AUTONOMIC_GANGLIA) was 0.9815. For the same compound, the AUC (NCIH23_LUNG) was 1.159, the AUC (NCIH28_PLEURA) was 1.1 and the AUC (NCIH226_LUNG) was 1. For the same compound, the AUC (NCIH292_LUNG) was 1.194, the AUC (NCIH322_LUNG) was 1.142 and the AUC (NCIH358_LUNG) was 0.8695. It also gave an AUC (NCIH446_LUNG) of 1.097, an AUC (NCIH460_LUNG) of 1.182 and an AUC (NCIH520_LUNG) of 1.115. The AUC (NCIH522_LUNG) was 1.144, the AUC (NCIH596_LUNG) was 1.0995 and the AUC (NCIH650_LUNG) was 0.9625. For the same compound, the AUC (NCIH661_LUNG) was 1.097, the AUC (NCIH727_LUNG) was 0.8802 and the AUC (NCIH747_LARGE_INTESTINE) was 1.192. It also gave an AUC (NCIH838_LUNG) of 1.102, an AUC (NCIH841_LUNG) of 0.9191 and an AUC (NCIH1048_LUNG) of 1.221. For the same compound, the AUC (NCIH1299_LUNG) was 1.132, the AUC (NCIH1339_LUNG) was 1.0827 and the AUC (NCIH1355_LUNG) was 1. For the same compound, the AUC (NCIH1373_LUNG) was 1, the AUC (NCIH1435_LUNG) was 1.103 and the AUC (NCIH1437_LUNG) was 1.1299. For the same compound, the AUC (NCIH1563_LUNG) was 1.106, the AUC (NCIH1568_LUNG) was 1.0425 and the AUC (NCIH1573_LUNG) was 1.2267. For the same compound, the AUC (NCIH1581_LUNG) was 1, the AUC (NCIH1623_LUNG) was 0.9367 and the AUC (NCIH1648_LUNG) was 0.9797. The AUC (NCIH1650_LUNG) was 1, the AUC (NCIH1651_LUNG) was 1.093 and the AUC (NCIH1693_LUNG) was 0.9899. The AUC (NCIH1703_LUNG) was 1.014, the AUC (NCIH1792_LUNG) was 1.039 and the AUC (NCIH1793_LUNG) was 1.204. For the same compound, the AUC (NCIH1838_LUNG) was 1.05, the AUC (NCIH1915_LUNG) was 1.114 and the AUC (NCIH1944_LUNG) was 1.069. The AUC (NCIH1975_LUNG) was 0.971, the AUC (NCIH2009_LUNG) was 1.115 and the AUC (NCIH2023_LUNG) was 1.241. It also gave an AUC (NCIH2030_LUNG) of 1.104, an AUC (NCIH2052_PLEURA) of 1.077 and an AUC (NCIH2077_LUNG) of 1.134. For the same compound, the AUC (NCIH2087_LUNG) was 1.226, the AUC (NCIH2110_LUNG) was 1.058 and the AUC (NCIH2122_LUNG) was 0.9408. The AUC (NCIH2126_LUNG) was 1.236, the AUC (NCIH2170_LUNG) was 1.101 and the AUC (NCIH2172_LUNG) was 1.092. It also gave an AUC (NCIH2228_LUNG) of 1.118, an AUC (NCIH2347_LUNG) of 1.188 and an AUC (NCIH2444_LUNG) of 1.192. It also gave an AUC (NCIH2452_PLEURA) of 1.126, an AUC (NCIN87_STOMACH) of 1.49 and an AUC (NUGC3_STOMACH) of 1.06. It also gave an AUC (NUGC4_STOMACH) of 0.9885, an AUC (OAW42_OVARY) of 1.241 and an AUC (OC314_OVARY) of 1.074. The AUC (OC316_OVARY) was 1.04, the AUC (OE19_OESOPHAGUS) was 1.175 and the AUC (OE21_OESOPHAGUS) was 1.031. The AUC (OE33_OESOPHAGUS) was 1.151, the AUC (ONCODG1_OVARY) was 0.9433 and the AUC (ONS76_CENTRAL_NERVOUS_SYSTEM) was 0.9415. For the same compound, the AUC (OSRC2_KIDNEY) was 0.9859, the AUC (OUMS23_LARGE_INTESTINE) was 0.9052 and the AUC (OV56_OVARY) was 1.208. The AUC (OVCAR8_OVARY) was 0.9939, the AUC (OVISE_OVARY) was 0.9359 and the AUC (OVK18_OVARY) was 1.044. For the same compound, the AUC (OVSAHO_OVARY) was 1.01, the AUC (OVTOKO_OVARY) was 1.081 and the AUC (PANC1_PANCREAS) was 0.9949. It also gave an AUC (PANC0203_PANCREAS) of 0.9842, an AUC (PANC0327_PANCREAS) of 1.28 and an AUC (PANC0403_PANCREAS) of 1.185. It also gave an AUC (PANC0813_PANCREAS) of 1.0849, an AUC (PANC1005_PANCREAS) of 1.231 and an AUC (PATU8902_PANCREAS) of 1.2352. The AUC (PATU8988S_PANCREAS) was 1.1933, the AUC (PATU8988T_PANCREAS) was 1.0752 and the AUC (PC3_PROSTATE) was 0.9113. It also gave an AUC (PC14_LUNG) of 1.023, an AUC (PECAPJ15_UPPER_AERODIGESTIVE_TRACT) of 0.9342 and an AUC (PECAPJ41CLONED2_UPPER_AERODIGESTIVE_TRACT) of 0.9621. The AUC (PECAPJ49_UPPER_AERODIGESTIVE_TRACT) was 1.067, the AUC (PK1_PANCREAS) was 1.024 and the AUC (PK45H_PANCREAS) was 1.109. It also gave an AUC (PK59_PANCREAS) of 1.206, an AUC (PLCPRF5_LIVER) of 1.091 and an AUC (PSN1_PANCREAS) of 1.221. The AUC (QGP1_PANCREAS) was 0.967, the AUC (RCC10RGB_KIDNEY) was 1.114 and the AUC (RCM1_LARGE_INTESTINE) was 1.243. It also gave an AUC (RD_SOFT_TISSUE) of 1.111, an AUC (RERFLCAD1_LUNG) of 1.059 and an AUC (RERFLCAD2_LUNG) of 1.0662. The AUC (RERFLCAI_LUNG) was 0.9008, the AUC (RERFLCKJ_LUNG) was 0.9276 and the AUC (RERFLCMS_LUNG) was 1.058. The AUC (RH30_SOFT_TISSUE) was 1.104, the AUC (RKN_SOFT_TISSUE) was 0.8189 and the AUC (RKO_LARGE_INTESTINE) was 0.9705. The AUC (RL952_ENDOMETRIUM) was 1.086, the AUC (RMGI_OVARY) was 1.148 and the AUC (RMUGS_OVARY) was 0.9927. For the same compound, the AUC (RT4_URINARY_TRACT) was 1.661.
